Measurements: article PMC5075766, “Antiplasmodial Activity Is an Ancient and Conserved Feature of Tick Defensins” (Frontiers in Microbiology, 2016)
Where two headings read alike, the source gives them in different places. Positions of bridges follow the written chain, without caps; N, C: chain ends. Residues, ends and D or L forms follow the SMILES beside them.

System: blood stages of P. falciparum
Assay type: cell-based, Plasmodium falciparum
Details: 48 h, starting parasitemia 0.5%, haematocrit 1%, SYBR Green I flow cytometry
Protocol: The growth inhibition assay was described in detail in [Fréville et al. (2013)]. Briefly, assays were carried out in 96-well plates with a starting parasitemia of 0.5% at a haematocrit of 1% using SYBR Green I ([Kelly et al., 2009]). The peptides were added to the culture at different concentrations ranging from 6.25 μM to 50 μM (final concentrations) in a volume of 250 μl of RPMI-AlbuMAX (0.5%) and incubated for an additional 48 h to allow all stages to complete one cycle. Cultures were stained for 30 min in the dark with SYBR Green I 1X (Invitrogen) diluted in 20 mM Tris pH8.8, 138 mM NaCl, and fixed with 1% paraformaldehyde. Fixed parasited red blood cells (RBC) were stored at 4°C in the dark until flow cytometry analysis. Parasite growth was assessed by flow cytometry on a BD FACSCantoII (BD Biosciences). Cell pairs were excluded from the analysis using a forward scatter (FSC)-width versus FSC-area dot plot. […] Fluorescence analysis (Green fluorescence) was performed using BD FACSDiva software (version 6.1.3, BD Biosciences) on a total of 200,000 acquired events. Fluorescence was observed as described by [Izumiyama et al. (2009)] on a two-parameter dot plot (Green fluoresecence-FSC). Fluorescence of non-infected RBC was adjusted to plot between […]. Results are expressed as the percentage of growth inhibition. […]

CC[C@H](C)[C@H](NC(=O)[C@@H]1CSSC[C@@H]2NC(=O)[C@H](Cc3c[nH]cn3)NC(=O)[C@H](CCCNC(=N)N)NC(=O)[C@H](CC(=O)O)NC(=O)[C@@H]3CSSC[C@H](NC(=O)[C@H]([C@@H](C)O)NC(=O)[C@H](CC(C)C)NC(=O)[C@H](CCCCN)NC(=O)[C@H](Cc4c[nH]c5ccccc45)NC(=O)[C@H](CCCNC(=N)N)NC(=O)CNC(=O)CNC(=O)[C@H](CSSC[C@H](NC(=O)[C@H](Cc4ccccc4)NC(=O)[C@H](Cc4ccccc4)NC(=O)CN)C(=O)N4CCC[C@H]4C(=O)N[C@@H](Cc4ccc(O)cc4)C(=O)N[C@@H](CC(N)=O)C(=O)NCC(=O)N[C@@H](Cc4ccc(O)cc4)C(=O)N3)NC(=O)[C@H](Cc3ccc(O)cc3)NC(=O)CNC(=O)CNC(=O)[C@H](CCCNC(=N)N)NC(=O)[C@H](CCCNC(=N)N)NC(=O)[C@H](CCCNC(=N)N)NC(=O)[C@H](CC(C)C)NC(=O)[C@H](CCCCN)NC(=O)[C@H](CCCCN)NC(=O)[C@H](CCCNC(=N)N)NC2=O)C(=O)N[C@@H]([C@@H](C)CC)C(=O)N1)C(=O)N[C@@H](CCSC)C(=O)N[C@@H](CC(N)=O)C(=O)O [DefMT5] (H-GFFCPYNGYCDRHCRKKLRRRGGYCGGRWKLTCICIMN-OH; disulfide 4-25, 10-33, 14-35; N-terminus assumed) was tested, and the “P. falciparum growth inhibition” value (6.25 μM peptide) was 20% and the “P. falciparum growth inhibition” value (50 μM peptide (highest concentration tested)) was about 100%.
